Test results published in patent US20120029003A1, “GALECTIN-3 AND STATIN THERAPY” (BG Medicine, Inc., priority 2010, published 2012).

Tests used:
[1] = tested on: heart failure patients; conditions: unselected heart failure patients; CORONA and GISSI-HF trials; cited from earlier work
[2] = tested on: patients with chronic heart failure (HF); test: Clinical trial of rosuvastatin vs placebo in chronic heart failure, analysed by baseline galectin-3 category; format: in vivo, human
Description: A clinical trial enrolled patients with chronic heart failure (HF) (New York Heart Association functional class II, III or IV) and with left ventricular ejection fraction less than or equal to 40% (less than or equal to 35% for patients in New York Heart Association functional class II). The design and primary results of the trial are reported in published literature [J. Kjekshus et al., “Rosuvastatin in Older Patients with Systolic Heart Failure.” N Engl J. Med. 2007 Nov. 29; 357(22):2248-61]. Patients were randomly assigned to receive 10 milligrams of rosuvastatin or placebo per day. Of the patients in the trial, a subset of 1,462 subjects also participated in a sub-study in which blood was collected at baseline, defined as the time of enrollment in the trial. Baseline galectin-3 levels were evaluated in these […] subjects.
Blood plasma samples were drawn at baseline from participants in a non-fasting state. All samples were stored at −80° C. Plasma galectin-3 levels were determined on these plasma specimens using a commercial enzyme-linked immunosorbent assay (BGM Galectin-3 Assay; BG Medicine, Waltham, Mass.) according to the manufacturer's instructions.
Determination of galectin-3 concentration in serum samples was assessed using ELISA kits (BGM Galectin-3 Assay; BG Medicine Inc., Waltham, Mass., USA). The assay sensitivity (lowest concentration different from zero) was 0.96 ng/mL. Intra- and inter-assay variations were less than 8% and 10% respectively.
For the main objective of investigating the effects of rosuvastatin treatment according to baseline galectin-3 level, galectin-3 categories were defined based on the median baseline value across all 1,462 subjects for whom a galectin-3 measurement was available. For each of six endpoints, a formal interaction test was conducted within a Cox proportional hazards model comprising treatment group (binary variable), galectin-3 category (dichotomous variable), and the interaction term. Subsequently, Cox proportional hazards models were used to estimate the hazard ratios (HRs) and 95% confidence intervals (CIs) comparing rosuvastatin and placebo treatments by galectin-3 categories. Fully adjusted models included the following 11 covariates, all evaluated at baseline: age (per year), gender, LVEF (per unit), NYHA class (due to the small number of subjects with class IV, class III and IV were combined), body mass index (BMI) (per unit), diabetes mellitus (yes/no), intermittent claudication (yes/no), heart rate (per unit), estimated glomerular filtration rate (eGFR) (per unit), the ratio of apolipoprotein B to apolipoprotein A1, and N-terminal B-type natriuretic peptide (NT-proBNP) (the variable NT-proBNP was logarithmically transformed using base e). Incident event rates were analyzed using Poisson regression. Baseline characteristics were compared by galectin-3 category using Student's t-test for variables expressed as means and standard deviation. All P-values are two two-tailed. All analyses were performed with SAS software, version 9.1 (SAS Institute), or R software, version 2.

CC(C)c1nc(N(C)S(C)(=O)=O)nc(-c2ccc(F)cc2)c1/C=C/[C@@H](O)C[C@@H](O)CC(=O)O [Rosuvastatin, rosuvastatin]
clinical benefit of statin therapy in heart failure patients [1]: did not demonstrate a significant clinical benefit
Rate of subjects experiencing the primary outcome, Rosuvastatin rate ([2]; Galectin-3 > 19.0 ng/mL, 728 subjects): 15.1 per 100 person-years of follow-up
Rate of subjects experiencing the primary outcome, Rosuvastatin rate ([2]; Galectin-3 ≦ 19.0 ng/mL, 734 subjects): 7.8 per 100 person-years of follow-up
hazard ratio (HR) for the primary endpoint, rosuvastatin compared to placebo ([2]; baseline galectin-3 >19.0 ng/mL (N=728), 10 mg rosuvastatin per day, adjusted HR): 1.07
rate of primary events ([2]; baseline galectin-3 >19.0 ng/mL, rosuvastatin group, 10 mg per day): 15.1 events per 100 patient-years
hazard ratio (HR) for the primary endpoint (earlier of cardiovascular death, non-fatal myocardial infarction or non-fatal stroke), rosuvastatin compared to placebo ([2]; baseline galectin-3 less than or equal to 19.0 ng/mL (N=734), 10 mg rosuvastatin per day, adjusted for 11 clinical and biochemical covariates): 0.65
difference in rate of primary events, rosuvastatin compared to placebo ([2]; baseline galectin-3 less than or equal to 19.0 ng/mL, 7.8 vs 11.2 events per 100 patient-years): 30.4%
rate of primary events ([2]; baseline galectin-3 less than or equal to 19.0 ng/mL, subjects randomized to rosuvastatin 10 mg per day): 7.8 events per 100 patient-years
